Read-outs that look alike come from different tables or passages of the source.

In experiment [1] the test system is M. turberculosis Dormancy Regulon. The settings on record: Kumar et al., cited from earlier work.
In another experiment the target is KatG (Mycobacterium tuberculosis, UniProt P9WIE5). In words: CO detection: KatG/tBHP activation, CO trapped by deoxyMyoglobin (MbCO, absorbance 540 nm). It counts as biochemical.
In experiment [2] the test system is dos regulon genes (dosR, dosS, fdxA). It counts as cell-based. The settings on record: Mtb H37Rv treated for 4 hours; Real time PCR.
The test system is the same in experiment [3]. It counts as cell-based, M. bovis BCG.

Sequence of KatG (P9WIE5 whole entry): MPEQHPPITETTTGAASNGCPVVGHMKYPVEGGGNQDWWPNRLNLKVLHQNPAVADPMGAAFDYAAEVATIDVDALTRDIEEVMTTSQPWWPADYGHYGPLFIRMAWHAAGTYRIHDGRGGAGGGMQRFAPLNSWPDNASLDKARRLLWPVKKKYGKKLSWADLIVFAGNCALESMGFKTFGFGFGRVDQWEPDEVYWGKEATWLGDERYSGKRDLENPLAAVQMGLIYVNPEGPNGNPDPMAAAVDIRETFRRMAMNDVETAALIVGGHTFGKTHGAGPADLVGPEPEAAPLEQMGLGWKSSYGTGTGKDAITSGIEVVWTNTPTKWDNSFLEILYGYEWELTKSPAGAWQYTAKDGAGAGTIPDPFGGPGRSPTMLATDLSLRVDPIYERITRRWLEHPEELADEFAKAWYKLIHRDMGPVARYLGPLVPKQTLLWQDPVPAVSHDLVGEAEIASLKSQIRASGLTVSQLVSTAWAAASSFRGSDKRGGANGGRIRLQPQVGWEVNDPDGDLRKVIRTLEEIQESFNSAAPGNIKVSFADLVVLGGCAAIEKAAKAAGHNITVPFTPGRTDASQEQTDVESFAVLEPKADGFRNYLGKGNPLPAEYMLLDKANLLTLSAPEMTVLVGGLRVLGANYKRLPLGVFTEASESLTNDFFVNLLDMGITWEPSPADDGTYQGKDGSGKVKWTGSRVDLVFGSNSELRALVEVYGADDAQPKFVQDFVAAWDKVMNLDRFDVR

Consider `[C-]#[O+]` [CO], for which the “+CO/−CO” value is listed as 3.3 in experiment [1] (gene Rv0079); 2.9 in experiment [1] (gene Rv0080); 2.3 in experiment [1] (gene Rv0081); 6 in experiment [1] (gene Rv0669); 3.2 in experiment [1] (gene Rv0670 nroZ); 2.3 in experiment [1] (gene Rv0671). Besides, the “+CO/−CO” value in experiment [1] (gene Rv0672) was 2.8; in experiment [1] (gene Rv0673 pncB2) it was 1.5; in experiment [1] (gene Rv0674), 1.7; in experiment [1] (gene Rv1733), 2.3; in experiment [1] (gene Rv1734), 2; in experiment [1] (gene Rv1735), 1.6. Moreover, the “+CO/−CO” value is 2.4 in experiment [1] (gene Rv1736 narX); 2.1 in experiment [1] (gene Rv1737 narK2); 5.8 in experiment [1] (gene Rv1738); 1.9 in experiment [1] (gene Rv1812); 5.1 in experiment [1] (gene Rv1813); 2.4 in experiment [1] (gene Rv1996). Also, the “+CO/−CO” value in experiment [1] (gene Rv1997 ctpF) is listed as 6.8; in experiment [1] (gene Rv2003), 3.3; in experiment [1] (gene Rv2004) it was 4.8; in experiment [1] (gene Rv2005) it was 6.7; in experiment [1] (gene Rv2006 otsB1) it was 2.6; in experiment [1] (gene Rv2007 foxA), 7.1. Further, the “+CO/−CO” value in experiment [1] (gene Rv2028) is 1.9; in experiment [1] (gene Rv2029 pkfB), 6.6; in experiment [1] (gene Rv2030) it was 9.2; in experiment [1] (gene Rv2031 hsoX (acr)), 5.2; in experiment [1] (gene Rv2032 acg) it was 8.4; in experiment [1] (gene Rv2823 TB31.7), 6.8. Further, the “+CO/−CO” value is listed as 7.1 in experiment [1] (gene Rv2824); 2.2 in experiment [1] (gene Rv2825); 10 in experiment [1] (gene Rv2826 hrp1); 4.2 in experiment [1] (gene Rv2827); 6.8 in experiment [1] (gene Rv2828); 2.6 in experiment [1] (gene Rv2829). In addition, the “+CO/−CO” value in experiment [1] (gene Rv2830) was 5.2; in experiment [1] (gene Rv2831) it was 2.7; in experiment [1] (gene Rv3126) it was 1.8; in experiment [1] (gene Rv3127) it was 2.7; in experiment [1] (gene Rv3130 tgs1), 11; in experiment [1] (gene Rv3131) it was 3.3. Besides, the “+CO/−CO” value in experiment [1] (gene Rv3132 dos8 (devS)) was 3.1; in experiment [1] (gene Rv3133 dosR (devR)) it was 3; in experiment [1] (gene Rv3134), 7.1.

Regarding `NNC(=O)c1ccncc1` [INH, Isoniazid], on KatG, the “CO produced from activated compound” value was “dependent upon dose, time, and KatG”. Also, the “expression of dos regulon genes (dosR, dosS, fdxA)” value in experiment [2] and in experiment [3] was “significantly increased” throughout.

Consider `NC(=O)c1ccc[n+]([C@@H]2O[C@H](COP(=O)([O-])OP(=O)(O)OC[C@H]3O[C@@H](n4cnc5c(N)ncnc54)[C@H](O)[C@@H]3O)[C@@H](O)[C@H]2O)c1` [NAD+, NAD], for which, on KatG (various dosages, Kat G 22.44 μg per reaction, 1 mM tBHP), the “formation of MbCO (CO-Mb)” value is recorded as “inhibited”.

(Values after patent US9579381B2 (priority 2012, dated 2017).)
